Measured values published in ChEMBL document CHEMBL1275577, “Study of the in vitro activities of rifaximin and comparator agents against 536 anaerobic intestinal bacteria from the perspective of potential utility in pathology involving bowel flora” (Antimicrob Agents Chemother, 2009).
Values after ≈ are worked out from the molar mass of the structure shown.

Legend:
[1] = tested on: Parabacteroides distasonis; test: Antimicrobial activity against Parabacteroides distasonis by Wadsworth agar dilution method; format: functional
[2] = tested on: Desulfovibrio fairfieldensis; test: Antimicrobial activity against Desulfovibrio fairfieldensis by Wadsworth agar dilution method; format: functional
Porphyromonas uenonis = test: Antimicrobial activity against Porphyromonas uenonis by Wadsworth agar dilution method; format: functional
Prevotella bivia = test: Antimicrobial activity against Prevotella bivia by Wadsworth agar dilution method; format: functional
Clostridioides difficile = test: Antimicrobial activity against Clostridium difficile by Wadsworth agar dilution method; format: functional
Clostridium hathewayi = test: Antimicrobial activity against Clostridium hathewayi by Wadsworth agar dilution method; format: functional; conditions: Hungatella hathewayi
Flavonifractor plautii = test: Antimicrobial activity against Clostridium orbiscindens by Wadsworth agar dilution method; format: functional
Clostridium beijerinckii = test: Antimicrobial activity against Clostridium beijerinckii by Wadsworth agar dilution method; format: functional
Clostridium bolteae = test: Antimicrobial activity against Clostridium bolteae by Wadsworth agar dilution method; format: functional; conditions: Enterocloster bolteae
Clostridium cadaveris = test: Antimicrobial activity against Clostridium cadaveris by Wadsworth agar dilution method; format: functional
Thomasclavelia ramosa = test: Antimicrobial activity against Clostridium ramosum by Wadsworth agar dilution method; format: functional
Clostridium scindens = test: Antimicrobial activity against Clostridium scindens by Wadsworth agar dilution method; format: functional
[3] = Antimicrobial activity against Bifidobacterium pseudocatenulatum by Wadsworth agar dilution method; format: functional
[4] = tested on: Catenibacterium mitsuokai; test: Antimicrobial activity against Catenibacterium mitsuokai by Wadsworth agar dilution method; format: functional
Eggerthella lenta = test: Antimicrobial activity against Eggerthella lenta by Wadsworth agar dilution method; format: functional
[5] = tested on: Limosilactobacillus reuteri; test: Antimicrobial activity against Lactobacillus reuteri by Wadsworth agar dilution method; format: functional
Propionibacterium avidum = test: Antimicrobial activity against Propionibacterium avidum by Wadsworth agar dilution method; format: functional; conditions: Cutibacterium avidum
[6] = tested on: Propionibacterium propionicum; test: Antimicrobial activity against Propionibacterium propionicum by Wadsworth agar dilution method; format: functional; conditions: Arachnia propionica
Finegoldia magna = test: Antimicrobial activity against Finegoldia magna by Wadsworth agar dilution method; format: functional
[7] = Drug level in stool of patient with traveler's diarrhea at 800 mg, po administered daily for 3 days; format: ADME, organism-based; conditions: human, in vivo, 72 h

For NC[C@@H]1O[C@H](O[C@H]2[C@@H](O)[C@H](O[C@@H]3[C@@H](O)[C@H](N)C[C@H](N)[C@H]3O[C@H]3O[C@H](CN)[C@@H](O)[C@H](O)[C@H]3N)O[C@@H]2CO)[C@H](N)[C@@H](O)[C@@H]1O [FRAMYCETIN], the MIC50 [1] was 1020 µg/mL (≈ 1670 µM), the MIC90 [1] was > 1020 µg/mL and the MIC50 [2] was 256 µg/mL (≈ 416 µM). The MIC90 [2] was 1020 µg/mL (≈ 1670 µM), the MIC50 (Porphyromonas uenonis) was 512 µg/mL (≈ 833 µM) and the MIC90 (Porphyromonas uenonis) was > 1020 µg/mL. The MIC50 (Prevotella bivia) was 512 µg/mL (≈ 833 µM), the MIC90 (Prevotella bivia) was 1020 µg/mL (≈ 1670 µM) and the MIC50 (Clostridioides difficile) was 256 µg/mL (≈ 416 µM). It also gave an MIC90 (Clostridioides difficile) of 512 µg/mL (≈ 833 µM), an MIC50 (Clostridium hathewayi) of 64 µg/mL (≈ 104 µM) and an MIC90 (Clostridium hathewayi) of 512 µg/mL (≈ 833 µM). The MIC50 (Flavonifractor plautii) was 256 µg/mL (≈ 416 µM), the MIC90 (Flavonifractor plautii) was 512 µg/mL (≈ 833 µM) and the MIC50 (Clostridium beijerinckii) was 256 µg/mL (≈ 416 µM). For the same molecule, the MIC90 (Clostridium beijerinckii) was 1020 µg/mL (≈ 1670 µM), the MIC50 (Clostridium bolteae) was 256 µg/mL (≈ 416 µM) and the MIC90 (Clostridium bolteae) was 1020 µg/mL (≈ 1670 µM). It also gave an MIC50 (Clostridium cadaveris) of 256 µg/mL (≈ 416 µM), an MIC90 (Clostridium cadaveris) of 1020 µg/mL (≈ 1670 µM) and an MIC50 (Thomasclavelia ramosa) of 256 µg/mL (≈ 416 µM). It also gave an MIC90 (Thomasclavelia ramosa) of 1020 µg/mL (≈ 1670 µM), an MIC50 (Clostridium scindens) of 256 µg/mL (≈ 416 µM) and an MIC90 (Clostridium scindens) of 1020 µg/mL (≈ 1670 µM). It also gave an MIC50 [3] of 128 µg/mL (≈ 208 µM), an MIC90 [3] of 1020 µg/mL (≈ 1670 µM) and an MIC50 [4] of 128 µg/mL (≈ 208 µM). It also gave an MIC90 [4] of 1020 µg/mL (≈ 1670 µM), an MIC50 (Eggerthella lenta) of 128 µg/mL (≈ 208 µM) and an MIC90 (Eggerthella lenta) of 1020 µg/mL (≈ 1670 µM). The MIC50 [5] was 128 µg/mL (≈ 208 µM), the MIC90 [5] was 1020 µg/mL (≈ 1670 µM) and the MIC50 (Propionibacterium avidum) was 128 µg/mL (≈ 208 µM). It also gave an MIC90 (Propionibacterium avidum) of 1020 µg/mL (≈ 1670 µM), an MIC50 [6] of 128 µg/mL (≈ 208 µM) and an MIC90 [6] of 1020 µg/mL (≈ 1670 µM). It also gave an MIC50 (Finegoldia magna) of 128 µg/mL (≈ 208 µM) and an MIC90 (Finegoldia magna) of 512 µg/mL (≈ 833 µM).

In the case of CO[C@H]1/C=C/O[C@@]2(C)Oc3c(C)c(O)c4c(O)c(c5c(nc6cc(C)ccn65)c4c3C2=O)NC(=O)/C(C)=C\C=C\[C@H](C)[C@H](O)[C@@H](C)[C@@H](O)[C@@H](C)[C@H](OC(C)=O)[C@@H]1C [RIFAXIMIN], the MIC [1] is reported as 0.25 µg/mL (≈ 0.318 µM), the MIC50 [1] is reported as 0.25 µg/mL (≈ 0.318 µM) and the MIC90 [1] is reported as 1 µg/mL (≈ 1.27 µM). The MIC50 [2] was 16 µg/mL (≈ 20.4 µM), the MIC90 [2] was 332 µg/mL (≈ 422 µM) and the MIC (Porphyromonas uenonis) was 0.25 µg/mL (≈ 0.318 µM). It also gave an MIC50 (Porphyromonas uenonis) of 0.25 µg/mL (≈ 0.318 µM), an MIC90 (Porphyromonas uenonis) of 0.5 µg/mL (≈ 0.636 µM) and an MIC (Prevotella bivia) of 0.25 µg/mL (≈ 0.318 µM). It also gave an MIC50 (Prevotella bivia) of 0.25 µg/mL (≈ 0.318 µM), an MIC90 (Prevotella bivia) of 0.5 µg/mL (≈ 0.636 µM) and an MIC50 (Clostridioides difficile) of 0.25 µg/mL (≈ 0.318 µM). For the same molecule, the MIC90 (Clostridioides difficile) was 0.25 µg/mL (≈ 0.318 µM), the MIC50 (Clostridium hathewayi) was 0.25 µg/mL (≈ 0.318 µM) and the MIC90 (Clostridium hathewayi) was 0.25 µg/mL (≈ 0.318 µM). The MIC50 (Flavonifractor plautii) was > 1020 µg/mL, the MIC90 (Flavonifractor plautii) was > 1020 µg/mL and the MIC (Clostridium beijerinckii) was 0.25 µg/mL (≈ 0.318 µM). The MIC50 (Clostridium beijerinckii) was 0.25 µg/mL (≈ 0.318 µM), the MIC90 (Clostridium beijerinckii) was > 1020 µg/mL and the MIC (Clostridium bolteae) was 0.25 µg/mL (≈ 0.318 µM). For the same molecule, the MIC50 (Clostridium bolteae) was 0.25 µg/mL (≈ 0.318 µM), the MIC90 (Clostridium bolteae) was > 1020 µg/mL and the MIC (Clostridium cadaveris) was 0.25 µg/mL (≈ 0.318 µM). The MIC50 (Clostridium cadaveris) was 0.25 µg/mL (≈ 0.318 µM), the MIC90 (Clostridium cadaveris) was > 1020 µg/mL and the MIC (Thomasclavelia ramosa) was 0.25 µg/mL (≈ 0.318 µM). The MIC50 (Thomasclavelia ramosa) was 0.25 µg/mL (≈ 0.318 µM), the MIC90 (Thomasclavelia ramosa) was > 1020 µg/mL and the MIC (Clostridium scindens) was 0.25 µg/mL (≈ 0.318 µM). For the same molecule, the MIC50 (Clostridium scindens) was 0.25 µg/mL (≈ 0.318 µM), the MIC90 (Clostridium scindens) was > 1020 µg/mL and the MIC50 [3] was 0.5 µg/mL (≈ 0.636 µM). The MIC90 [3] was > 1020 µg/mL, the MIC50 [4] was 0.5 µg/mL (≈ 0.636 µM) and the MIC90 [4] was > 1020 µg/mL. For the same molecule, the MIC50 (Eggerthella lenta) was 0.5 µg/mL (≈ 0.636 µM), the MIC90 (Eggerthella lenta) was > 1020 µg/mL and the MIC50 [5] was 0.5 µg/mL (≈ 0.636 µM). For the same molecule, the MIC90 [5] was > 1020 µg/mL, the MIC50 (Propionibacterium avidum) was 0.5 µg/mL (≈ 0.636 µM) and the MIC90 (Propionibacterium avidum) was > 1020 µg/mL. For the same molecule, the MIC50 [6] was 0.5 µg/mL (≈ 0.636 µM), the MIC90 [6] was > 1020 µg/mL and the MIC (Finegoldia magna) was 0.25 µg/mL (≈ 0.318 µM). For the same molecule, the MIC50 (Finegoldia magna) was 0.25 µg/mL (≈ 0.318 µM), the MIC90 (Finegoldia magna) was 4 µg/mL (≈ 5.09 µM) and the concentration [7] was 8000 µg/g.
